How the values were obtained:
[1] = target: T1, Bile acid receptor (Homo sapiens) (UniProt Q96RI1); test: Agonist activity at human FXR assessed as SRC1 peptide interaction with receptor ligand binding domain by FRET assay relative to GW-4064
T1 sequence (whole entry): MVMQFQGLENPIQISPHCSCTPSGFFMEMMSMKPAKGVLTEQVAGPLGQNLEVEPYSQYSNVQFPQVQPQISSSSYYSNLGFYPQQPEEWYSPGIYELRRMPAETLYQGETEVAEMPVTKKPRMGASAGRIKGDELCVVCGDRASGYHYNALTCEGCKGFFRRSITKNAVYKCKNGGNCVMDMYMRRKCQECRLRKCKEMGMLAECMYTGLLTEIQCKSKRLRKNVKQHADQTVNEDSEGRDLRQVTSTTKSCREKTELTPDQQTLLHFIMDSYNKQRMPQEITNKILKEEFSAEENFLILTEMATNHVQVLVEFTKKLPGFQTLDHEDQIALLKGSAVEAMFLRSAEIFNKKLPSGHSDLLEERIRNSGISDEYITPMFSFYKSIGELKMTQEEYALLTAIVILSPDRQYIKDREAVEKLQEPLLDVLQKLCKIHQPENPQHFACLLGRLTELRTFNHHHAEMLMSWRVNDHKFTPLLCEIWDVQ

Bile acid receptor [2] = target: T2, Bile acid receptor (Homo sapiens, UniProt Q96RI1); test: Agonist activity at human FXR transfected in african green monkey CV1 cells by luciferase reporter gene transient transfection assay; assay type: functional, cell-based, CV-1
T2 sequence (Q96RI1 whole entry): T1 sequence (whole entry)

[3] = Selectivity ratio of XC50 for LRH to EC50 for human FXR
Bile acid receptor [4] = target: T2, Bile acid receptor; test: Agonist activity at human FXR assessed as SRC1 peptide interaction with receptor ligand binding domain by FRET assay
[5] = target: T1, Bile acid receptor (Homo sapiens); test: Agonist activity at human FXR transfected in african green monkey CV1 cells by luciferase reporter gene transient transfection assay relative to GW-4064; assay type: functional, cell-based; conditions: CV-1
[6] = Selectivity ratio of XC50 for LXRalpha to EC50 for human FXR
[7] = Selectivity ratio of XC50 for LXRbeta to EC50 for human FXR
[8] = Selectivity ratio of XC50 for PXR to EC50 for human FXR
[9] = Selectivity ratio of XC50 for RORalpha to EC50 for human FXR
[10] = target: T3, Nuclear receptor subfamily 5 group A member 2 (Homo sapiens, UniProt O00482); test: Activity at LRH assessed as coactivator peptide interaction with receptor ligand binding domain by FRET assay
[11] = target: T4, Oxysterols receptor LXR-alpha (Homo sapiens, UniProt Q13133); test: Activity at LXRalpha assessed as coactivator peptide interaction with receptor ligand binding domain by FRET assay
T4 sequence (Q13133 whole entry): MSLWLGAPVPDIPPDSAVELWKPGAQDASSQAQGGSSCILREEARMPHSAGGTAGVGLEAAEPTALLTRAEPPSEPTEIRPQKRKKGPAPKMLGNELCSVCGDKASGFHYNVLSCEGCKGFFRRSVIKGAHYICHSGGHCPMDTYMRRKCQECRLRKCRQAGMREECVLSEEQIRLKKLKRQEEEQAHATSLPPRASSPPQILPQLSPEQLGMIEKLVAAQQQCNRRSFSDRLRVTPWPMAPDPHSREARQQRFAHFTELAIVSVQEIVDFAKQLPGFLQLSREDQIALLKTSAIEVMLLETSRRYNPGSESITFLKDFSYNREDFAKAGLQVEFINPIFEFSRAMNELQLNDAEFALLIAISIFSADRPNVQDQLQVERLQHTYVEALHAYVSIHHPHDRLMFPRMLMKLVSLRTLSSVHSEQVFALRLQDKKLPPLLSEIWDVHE

[12] = target: T5, Oxysterols receptor LXR-beta (Homo sapiens, UniProt P55055); test: Activity at LXRbeta assessed as coactivator peptide interaction with receptor ligand binding domain by scintillation proximity assay
T5 sequence (P55055 whole entry): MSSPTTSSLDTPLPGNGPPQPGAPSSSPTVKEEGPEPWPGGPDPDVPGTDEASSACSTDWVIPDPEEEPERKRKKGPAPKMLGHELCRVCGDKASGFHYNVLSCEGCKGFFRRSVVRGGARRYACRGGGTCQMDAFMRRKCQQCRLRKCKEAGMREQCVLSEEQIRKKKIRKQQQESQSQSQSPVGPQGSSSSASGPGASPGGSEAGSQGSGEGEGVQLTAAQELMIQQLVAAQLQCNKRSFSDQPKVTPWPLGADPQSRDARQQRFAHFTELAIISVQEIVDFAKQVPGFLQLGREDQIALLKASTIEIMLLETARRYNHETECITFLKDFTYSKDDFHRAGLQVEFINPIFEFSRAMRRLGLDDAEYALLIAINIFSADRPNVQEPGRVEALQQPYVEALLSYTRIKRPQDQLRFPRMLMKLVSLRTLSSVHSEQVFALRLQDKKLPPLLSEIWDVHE

[13] = target: T6, PXR (Nuclear receptor subfamily 1 group I member 2) (Homo sapiens, UniProt O75469); test: Activity at PXR assessed as coactivator peptide interaction with receptor ligand binding domain by scintillation proximity assay
T6 sequence (O75469 whole entry): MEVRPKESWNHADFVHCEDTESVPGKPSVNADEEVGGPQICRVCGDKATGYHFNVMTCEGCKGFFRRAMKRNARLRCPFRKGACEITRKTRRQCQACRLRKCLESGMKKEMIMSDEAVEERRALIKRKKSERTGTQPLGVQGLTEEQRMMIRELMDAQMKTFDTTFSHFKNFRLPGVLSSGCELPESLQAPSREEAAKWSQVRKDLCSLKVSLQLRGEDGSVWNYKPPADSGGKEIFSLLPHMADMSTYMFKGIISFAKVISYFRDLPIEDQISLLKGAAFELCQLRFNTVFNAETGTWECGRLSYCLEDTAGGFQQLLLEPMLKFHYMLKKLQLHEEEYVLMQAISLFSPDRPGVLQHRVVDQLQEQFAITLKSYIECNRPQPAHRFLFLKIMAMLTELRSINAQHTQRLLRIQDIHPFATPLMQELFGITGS

[14] = target: T7, Nuclear receptor ROR-alpha (Homo sapiens, UniProt P35398); test: Activity at RORalpha assessed as coactivator peptide interaction with receptor ligand binding domain by FRET assay
T7 sequence (P35398 whole entry): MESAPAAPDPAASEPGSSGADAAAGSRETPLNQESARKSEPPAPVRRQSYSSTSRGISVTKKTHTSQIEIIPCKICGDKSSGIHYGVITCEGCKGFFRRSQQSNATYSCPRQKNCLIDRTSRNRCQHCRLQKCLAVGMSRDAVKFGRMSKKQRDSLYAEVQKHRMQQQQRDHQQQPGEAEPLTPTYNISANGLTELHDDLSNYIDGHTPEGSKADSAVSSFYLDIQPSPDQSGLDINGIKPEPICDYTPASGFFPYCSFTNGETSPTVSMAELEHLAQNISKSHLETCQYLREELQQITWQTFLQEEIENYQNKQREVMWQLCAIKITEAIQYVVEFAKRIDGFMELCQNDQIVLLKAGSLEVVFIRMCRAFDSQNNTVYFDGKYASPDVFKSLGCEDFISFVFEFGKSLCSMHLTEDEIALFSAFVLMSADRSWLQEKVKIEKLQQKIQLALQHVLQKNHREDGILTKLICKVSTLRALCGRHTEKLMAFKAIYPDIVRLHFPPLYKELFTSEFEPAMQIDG

[15] = target: T3, Nuclear receptor subfamily 5 group A member 2; test: Activity at LRH assessed as coactivator peptide interaction with receptor ligand binding domain by FRET assay relative to standard control
[16] = target: T8, Oxysterols receptor LXR-alpha (Homo sapiens) (UniProt Q13133); test: Activity at LXRalpha assessed as coactivator peptide interaction with receptor ligand binding domain by FRET assay relative to standard control
T8 sequence (whole entry): T4 sequence (Q13133 whole entry)

[17] = target: T9, Oxysterols receptor LXR-beta (Homo sapiens) (UniProt P55055); test: Activity at LXRbeta assessed as coactivator peptide interaction with receptor ligand binding domain by scintillation proximity assay relative to standard control
T9 sequence (whole entry): T5 sequence (P55055 whole entry)

[18] = target: T6, PXR (Nuclear receptor subfamily 1 group I member 2); test: Activity at PXR assessed as coactivator peptide interaction with receptor ligand binding domain by scintillation proximity assay relative to standard control; conditions: read-out: %max
Bile acid receptor [19] = target: T2, Bile acid receptor; test: Agonist activity at human FXR assessed as SRC1 coactivator peptide recruitment by cell free FRET assay; assay type: functional
[20] = Terminal half life in iv dosed rat; assay type: ADME, organism-based; conditions: in vivo, read-out: beta t1/2
[21] = Total clearance in iv dosed rat; assay type: ADME, organism-based; conditions: in vivo
[22] = Volume of distribution at steady state in iv dosed rat; assay type: ADME, organism-based; conditions: in vivo, read-out: Vdss
[23] = Oral bioavailability in rat; assay type: ADME, organism-based; conditions: in vivo

T3 sequence (O00482 whole entry, the tested form may be a part): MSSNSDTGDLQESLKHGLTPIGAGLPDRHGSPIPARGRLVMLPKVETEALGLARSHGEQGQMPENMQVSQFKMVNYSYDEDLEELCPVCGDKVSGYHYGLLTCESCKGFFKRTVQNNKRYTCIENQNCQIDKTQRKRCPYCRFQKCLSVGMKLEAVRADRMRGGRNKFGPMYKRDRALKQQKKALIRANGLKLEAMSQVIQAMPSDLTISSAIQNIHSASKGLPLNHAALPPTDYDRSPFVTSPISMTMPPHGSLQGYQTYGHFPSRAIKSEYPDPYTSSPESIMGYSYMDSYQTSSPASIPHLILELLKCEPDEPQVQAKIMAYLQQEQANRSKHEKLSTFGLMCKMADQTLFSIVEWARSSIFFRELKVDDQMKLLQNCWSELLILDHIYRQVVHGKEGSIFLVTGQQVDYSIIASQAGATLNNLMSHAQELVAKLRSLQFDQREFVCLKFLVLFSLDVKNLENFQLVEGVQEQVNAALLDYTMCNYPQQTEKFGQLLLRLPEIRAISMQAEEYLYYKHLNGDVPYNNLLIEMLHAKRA

Structure (SMILES) | %max [1] [%] | EC50 (Bile acid receptor [2]) [nM] | EC50 (Bile acid receptor [4]) [nM] | %max [5] [%] | half-life [20] [h] | clearance [21] [mL/min/kg] | Vd [22] [L/kg] | bioavailability [23] [%] | further results
CC(C)c1onc(C[S+]([O-])c2c(Cl)cccc2Cl)c1COc1ccc(/C=C/c2cccc(C(=O)O)c2)c(Cl)c1 (configuration not stated) | 110 | 72 | 28 | 100 | – | – | – | – | Ratio [3]: 100; Ratio [6]: 100; Ratio [7]: 100; Ratio [8]: 100; Ratio [9]: 100; XC50 [10]: 4200 nM; XC50 [11]: 1400 nM; XC50 [12]: 2500 nM; XC50 [13]: 960 nM; XC50 [14]: > 10000 nM; %max [15]: 46%; %max [16]: 33%; %max [17]: 101%; Emax [18]: 100%
CC(C)c1onc(COc2c(Cl)cc(F)cc2Cl)c1COc1ccc(/C=C/c2cccc(C(=O)O)c2)c(Cl)c1 | 112 | – | 87 | 56 | 2.33 | 15 | 1.4 | 1.9 | EC50 (Bile acid receptor [19]): 540 nM
CC(C)c1onc(CNc2c(Cl)cccc2Cl)c1COc1ccc(/C=C/c2cccc(C(=O)O)c2)c(Cl)c1 | 104 | 140 | 72 | 70 | 2.33 | 16 | 2.1 | 2.6 | –
CC(C)c1onc(COc2c(Cl)cccc2Cl)c1COc1ccc(/C=C/c2cccc(C(=O)O)c2)c(Cl)c1 | 102 | 89 | 78 | 89 | 2.17 | 20 | 1.2 | 9.2 | –

Source: ChEMBL document CHEMBL1136905, “Substituted isoxazole analogs of farnesoid X receptor (FXR) agonist GW4064” (Bioorg Med Chem Lett, 2009)
